Results from patent publication US20140243302A1, “BRIDGED BICYCLIC COMPOUNDS FOR THE TREATMENT OF BACTERIAL INFECTIONS” (priority 2011, published 2014).
In brackets after ≈: the same amount, converted by molar mass.

System: Staphylococcus aureus Smith
Test: MIC assay, modified agar dilution (CLSI), S. aureus Smith
Type: cell-based
Conditions: Staphylococcus aureus, agar dilution, 35° C., 16-20 hr; lowest concentration that completely inhibited growth; read-out: S_aureus_Smith_WT_MIC
Procedure, shortened: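 Strains were spotted at about 1×10^4 CFU onto compound-containing Mueller Hinton agar (two-fold series, 128-0.001 μg/mL), horse blood 5% added for pneumococcus and enterococcus. MIC read after 16-20 hr at 35 °C, following a modified CLSI agar dilution method.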

MIC | SMILES
4 mg/L (≈ 7.88 µM) | COc1ccc2ncc(F)c(CCC34CCC(NCc5ccc(N6CCOCC6)nc5)(CC3)CO4)c2n1 [Example 64, 1-(2-(3-Fluoro-6-methoxy-1,5-naphthyridin-4-yl)ethyl)-N-((6-morpholinopyridin-3-yl)methyl)-2-oxabicyclo[2.2.2]octan-4-amine]
2 mg/L (≈ 3.93 µM) | COc1ccc2ncc(F)c(CCC34CCC(NCc5cnc(N6CCOCC6)nc5)(CC3)CO4)c2n1 [Example 65, 1-(2-(3-Fluoro-6-methoxy-1,5-naphthyridin-4-yl)ethyl)-N-((2-morpholinopyrimidin-5-yl)methyl)-2-oxabicyclo[2.2.2]octan-4-amine]
0.125 mg/L (≈ 0.254 µM) | COc1ccc2ncc(F)c(CCC34CCC(NCc5ccc6c(c5)OCCN6C)(CC3)CO4)c2n1 [Example 66, 1-(2-(3-Fluoro-6-methoxy-1,5-naphthyridin-4-yl)ethyl)-N-((4-methyl-3,4-dihydro-2H-benzo[b][1,4]oxazin-7-yl)methyl)-2-oxabicyclo[2.2.2]octan-4-amine]
0.031 mg/L (≈ 0.0603 µM) | COc1ccc2ncc(F)c(CCC34CCC(NCc5cc(Cl)c6c(c5)OCCO6)(CC3)CO4)c2n1 [Example 67, N-((8-Chloro-2,3-dihydrobenzo[b][1,4]dioxin-6-yl)methyl)-1-(2-(3-fluoro-6-methoxy-1,5-naphthyridin-4-yl)ethyl)-2-oxabicyclo[2.2.2]octan-4-amine]
0.016 mg/L (≈ 0.0342 µM) | COc1ccc2ncc(F)c(CCC34CCC(NC(=O)c5ccc(C)c(F)c5)(CC3)CO4)c2n1 [Example 68, 3-Fluoro-N-(1-(2-(3-fluoro-6-methoxy-1,5-naphthyridin-4-yl)ethyl)-2-oxabicyclo[2.2.2]octan-4-yl)-4-methylbenzamide]
0.008 mg/L (≈ 0.0167 µM) | COc1ccc2ncc(F)c(CCC34CCC(NCc5ccc6c(c5)OCCO6)(CC3)CO4)c2n1 [Example 69, N-((2,3-Dihydrobenzo[b][1,4]dioxin-6-yl)methyl)-1-(2-(3-fluoro-6-methoxy-1,5-naphthyridin-4-yl)ethyl)-2-oxabicyclo[2.2.2]octan-4-amine]
2 mg/L (≈ 4.68 µM) | COc1ccc2ncc(F)c(CCC34CCC(NCC5CCCCC5)(CC3)CO4)c2n1 [Example 70, N-(Cyclohexylmethyl)-1-(2-(3-fluoro-6-methoxy-1,5-naphthyridin-4-yl)ethyl)-2-oxabicyclo[2.2.2]octan-4-amine]
1 mg/L (≈ 1.99 µM) | COc1ccc2ncc(F)c(CCC34CCC(NS(=O)(=O)c5ccc(C)c(F)c5)(CC3)CO4)c2n1 [Example 71, 3-Fluoro-N-(1-(2-(3-fluoro-6-methoxy-1,5-naphthyridin-4-yl)ethyl)-2-oxabicyclo[2.2.2]octan-4-yl)-4-methylbenzenesulfonamide]
0.125 mg/L (≈ 0.25 µM) | COc1ccc2ncc(F)c(CCC34CCC(NCc5cc(Cl)c6c(c5)OCO6)(CC3)CO4)c2n1 [Example 72, N-((7-Chlorobenzo[d][1,3]dioxol-5-yl)methyl)-1-(2-(3-fluoro-6-methoxy-1,5-naphthyridin-4-yl)ethyl)-2-oxabicyclo[2.2.2]octan-4-amine]
0.016 mg/L (≈ 0.0323 µM) | COc1ccc2ncc(F)c(CCC34CCC(NCc5cc(-c6cccs6)on5)(CC3)CO4)c2n1 [Example 73, 1-(2-(3-Fluoro-6-methoxy-1,5-naphthyridin-4-yl)ethyl)-N-((5-(thiophen-2-yl)isoxazol-3-yl)methyl)-2-oxabicyclo[2.2.2]octan-4-amine]
4 mg/L (≈ 7.91 µM) | COc1ccc2ncc(F)c(CCC34CCC(NCc5csc(-c6ccccn6)n5)(CC3)CO4)c2n1 [Example 75, 1-(2-(3-Fluoro-6-methoxy-1,5-naphthyridin-4-yl)ethyl)-N-((2-(pyridin-2-yl)thiazol-4-yl)methyl)-2-oxabicyclo[2.2.2]octan-4-amine]
0.125 mg/L (≈ 0.255 µM) | COc1ccc2ncc(F)c(CCC34CCC(NCc5cn(-c6ncccn6)cn5)(CC3)CO4)c2n1 [Example 76, 1-(2-(3-Fluoro-6-methoxy-1,5-naphthyridin-4-yl)ethyl)-N-((1-(pyrimidin-2-yl)-1H-imidazol-4-yl)methyl)-2-oxabicyclo[2.2.2]octan-4-amine]
0.125 mg/L (≈ 0.261 µM) | COc1ccc2ncc(F)c(CCC34CCC(NCc5cc6cccnc6s5)(CC3)CO4)c2n1 [Example 77, 1-(2-(3-Fluoro-6-methoxy-1,5-naphthyridin-4-yl)ethyl)-N-(thieno[2,3-b]pyridin-2-ylmethyl)-2-oxabicyclo[2.2.2]octan-4-amine]
0.25 mg/L (≈ 0.508 µM) | COc1ccc2ncc(F)c(CCC34CCC(NCc5cnc(N6CCCC6)nc5)(CC3)CO4)c2n1 [Example 78, 1-(2-(3-Fluoro-6-methoxy-1,5-naphthyridin-4-yl)ethyl)-N-((2-(pyrrolidin-1-yl)pyrimidin-5-yl)methyl)-2-oxabicyclo[2.2.2]octan-4-amine]
0.5 mg/L (≈ 0.995 µM) | COc1ccc2ncc(F)c(CCC34CCC(NCc5cc6ccccc6n(C)c5=O)(CC3)CO4)c2n1 [Example 79, 3-((1-(2-(3-Fluoro-6-methoxy-1,5-naphthyridin-4-yl)ethyl)-2-oxabicyclo[2.2.2]octan-4-ylamino)methyl)-1-methylquinolin-2(1H)-one]
0.063 mg/L (≈ 0.136 µM) | COc1ccc2ncc(F)c(CCC34CCC(NCc5ccc6cc[nH]c6n5)(CC3)CO4)c2n1 [Example 80, N-((1H-Pyrrolo[2,3-b]pyridin-6-yl)methyl)-1-(2-(3-fluoro-6-methoxy-1,5-naphthyridin-4-yl)ethyl)-2-oxabicyclo[2.2.2]octan-4-amine]
0.5 mg/L (≈ 1.08 µM) | COc1ccc2ncc(F)c(CCC34CCC(NCc5cnc6[nH]ccc6c5)(CC3)CO4)c2n1 [Example 81, N-((1H-Pyrrolo[2,3-b]pyridin-5-yl)methyl)-1-(2-(3-fluoro-6-methoxy-1,5-naphthyridin-4-yl)ethyl)-2-oxabicyclo[2.2.2]octan-4-amine]
0.25 mg/L (≈ 0.509 µM) | COc1ccc2ncc(F)c(CCC34CCC(NCc5ccc(N6CCCC6)nc5)(CC3)CO4)c2n1 [Example 82, 1-(2-(3-Fluoro-6-methoxy-1,5-naphthyridin-4-yl)ethyl)-N-((6-(pyrrolidin-1-yl)pyridin-3-yl)methyl)-2-oxabicyclo[2.2.2]octan-4-amine]
1 mg/L (≈ 2.04 µM) | COc1ccc2ncc(F)c(CCC34CCC(NCc5ccc6ccc(=O)[nH]c6n5)(CC3)CO4)c2n1 [Example 83, 7-((1-(2-(3-Fluoro-6-methoxy-1,5-naphthyridin-4-yl)ethyl)-2-oxabicyclo[2.2.2]octan-4-ylamino)methyl)-1,8-naphthyridin-2(1H)-one]
0.25 mg/L (≈ 0.494 µM) | COc1ccc2ncc(F)c(CCC34CCC(NCc5ccc(N6CCCCC6)nc5)(CC3)CO4)c2n1 [Example 84, 1-(2-(3-Fluoro-6-methoxy-1,5-naphthyridin-4-yl)ethyl)-N-((6-(piperidin-1-yl)pyridin-3-yl)methyl)-2-oxabicyclo[2.2.2]octan-4-amine]
0.125 mg/L (≈ 0.268 µM) | COc1ccc2ncc(F)c(CCC34CCC(NCc5cnc(N(C)C)nc5)(CC3)CO4)c2n1 [Example 85, 5-((1-(2-(3-Fluoro-6-methoxy-1,5-naphthyridin-4-yl)ethyl)-2-oxabicyclo[2.2.2]octan-4-ylamino)methyl)-N,N-dimethylpyrimidin-2-amine]
16 mg/L (≈ 32 µM) | CCOC(=O)c1csc(CNC23CCC(CCc4c(F)cnc5ccc(OC)nc45)(CC2)OC3)n1 [Example 86, Ethyl 2-(((1-(2-(3-Fluoro-6-methoxy-1,5-naphthyridin-4-yl)ethyl)-2-oxabicyclo[2.2.2]octan-4-yl)amino)methyl)thiazole-4-carboxylate]
0.063 mg/L | COc1ccc2ncc(F)c(CCC34CCC(NCc5cc6c(cc5F)OCO6)(CC3)CO4)c2n1.Cl [Example 87, 1-(2-(3-Fluoro-6-methoxy-1,5-naphthyridin-4-yl)ethyl)-N-((6-fluorobenzo[d][1,3]dioxol-5-yl)methyl)-2-oxabicyclo[2.2.2]octan-4-amine Hydrochloride]
0.008 mg/L | COc1ccc2ncc(F)c(CCC34CCC(NCc5nc6c(cc5Cl)OCC(=O)N6)(CC3)CO4)c2n1.Cl [Example 88, 7-chloro-6-(((1-(2-(3-fluoro-6-methoxy-1,5-naphthyridin-4-yl)ethyl)-2-oxabicyclo[2.2.2]octan-4-yl)amino)methyl)-2H-pyrido[3,2-b][1,4]oxazin-3(4H)-one]
0.125 mg/L (≈ 0.253 µM) | COc1ccc2ncc(F)c(CCC34CCC(NCc5cnc6c(c5)OCCN6C)(CC3)CO4)c2n1 [Example 89, 1-(2-(3-Fluoro-6-methoxy-1,5-naphthyridin-4-yl)ethyl)-N-((4-methyl-3,4-dihydro-2H-pyrido[3,2-b][1,4]oxazin-7-yl)methyl)-2-oxabicyclo[2.2.2]octan-4-amine]
0.125 mg/L (≈ 0.249 µM) | COc1ccc2ncc(F)c(CCC34CCC(NCc5ccc6c(c5)OC(F)(F)O6)(CC3)CO4)c2n1 [Example 90, N-((2,2-Difluorobenzo[d][1,3]dioxol-5-yl)methyl)-1-(2-(3-fluoro-6-methoxy-1,5-naphthyridin-4-yl)ethyl)-2-oxabicyclo[2.2.2]octan-4-amine]
16 mg/L (≈ 31.6 µM) | COc1ccc2ncc(F)c(CCC34CCC(NCc5ccc6c(c5)n(C)c(=O)n6C)(CC3)CO4)c2n1 [Example 91, 5-((1-(2-(3-Fluoro-6-methoxy-1,5-naphthyridin-4-yl)ethyl)-2-oxabicyclo[2.2.2]octan-4-ylamino)methyl)-1,3-dimethyl-1H-benzo[d]imidazol-2(3H)-one]
0.125 mg/L (≈ 0.263 µM) | COc1ccc2ncc(F)c(CCC34CCC(NCc5cnn(CC(F)F)c5)(CC3)CO4)c2n1 [Example 92, N-((1-(2,2-Difluoroethyl)-1H-pyrazol-4-yl)methyl)-1-(2-(3-fluoro-6-methoxy-1,5-naphthyridin-4-yl)ethyl)-2-oxabicyclo[2.2.2]octan-4-amine]
16 mg/L (≈ 34.8 µM) | COc1ccc2ncc(F)c(CCC34CCC(NCc5nn(C)cc5Cl)(CC3)CO4)c2n1 [Example 93, N-((4-Chloro-1-methyl-1H-pyrazol-3-yl)methyl)-1-(2-(3-fluoro-6-methoxy-1,5-naphthyridin-4-yl)ethyl)-2-oxabicyclo[2.2.2]octan-4-amine]
> 16 mg/L | COc1ccc2ncc(F)c(CCC34CCC(NCc5cn(C)c(=O)n(C)c5=O)(CC3)CO4)c2n1 [Example 94, 5-((1-(2-(3-Fluoro-6-methoxy-1,5-naphthyridin-4-yl)ethyl)-2-oxabicyclo[2.2.2]octan-4-ylamino)methyl)-1,3-dimethylpyrimidine-2,4(1H,3H)-dione]
